Structures can show the parent of a compound that is named as a salt.
What was measured:
Assay type in all cases: biochemical
PDE3 = PDE3 (Homo sapiens, UniProt Q14432); assay: Inhibition of PDE isoenzymes: PDE3 (cGMP-inhibited), homogenates of human blood platelets; conditions: read-out: -log IC50, PDE3 (converted)
Description: (§1) The PDE activity was determined according to Thompson et al. (1) with some modifications (2). The test samples contained 40 mM tris HCl (pH 7.4), 5 mM MgCl2, 0.5 μM cAMP or cGMP, [^3 H] cAMP or [^3 H]cGMP (about 50,000 cpm/sample), the PDE isoenzyme-specific additions described in greater detail below, the indicated concentrations of inhibitor and an aliquot of the enzyme solution in a total sample volume of 200 μl. […] After preincubation at 37° C. for 5 minutes, the reaction was started by addition of the substrate (cAMP or cGMP). The samples were incubated at 37° C. for a further 15 min. The reaction was terminated by addition of 50 μl of 0.2N HCl. After cooling on ice for 10 minutes and addition of 25 μg of 5'-nucleotidase (snake venom from Crotalus atrox), the mixture was again incubated at 37° C. for 10 min and the samples were then applied to QAE Sephadex A-25 columns. The columns were eluted with 2 ml of 30 mM ammonium formate (pH 6.0). The radioactivity of the eluate was measured and corrected by the corresponding blank values. The proportion of hydrolyzed nucleotide in no case exceeded 20% of the original substrate concentration.
PDE3 (cGMP-inhibited) and PDE5 (cGMP-specific) were investigated in homogenates of human blood platelets [Schudt et al. (4)] using cAMP or cGMP as a substrate.
(§2) The IC50 values were determined from the concentration-inhibition curves by nonlinear regression using the GraphPad InPlot™ program (GraphPad Software Inc., Philadelphia, U.S.A.).
In Table 1 below, the inhibitory concentrations determined according to Section A1 [inhibitory concentrations as -log IC50 (mol/l)] for the compounds according to the invention are indicated for various PDE isoenzymes. The numbers of the compounds correspond to the numbers of the examples.

PDE4 = assay: Inhibition of PDE isoenzymes: PDE4 (cAMP-specific), cytosol of human polymorphonuclear leukocytes; conditions: PDE4, cytosol of human PMNL, cAMP as substrate, motapizone (1 μM) present
PDE2 = molecular target: T1, PDE2 (Rattus norvegicus, UniProt Q01062); assay: Inhibition of PDE isoenzymes: PDE2 (cGMP-stimulated) from rat hearts; conditions: cGMP (5 μM), cAMP as substrate, read-out: -log IC50, PDE2 (converted)
T1 construct: from rat hearts was purified chromatographically; from tissue; host or cells: rat heart, chromatographically purified
T1 sequence (Q01062 1-928): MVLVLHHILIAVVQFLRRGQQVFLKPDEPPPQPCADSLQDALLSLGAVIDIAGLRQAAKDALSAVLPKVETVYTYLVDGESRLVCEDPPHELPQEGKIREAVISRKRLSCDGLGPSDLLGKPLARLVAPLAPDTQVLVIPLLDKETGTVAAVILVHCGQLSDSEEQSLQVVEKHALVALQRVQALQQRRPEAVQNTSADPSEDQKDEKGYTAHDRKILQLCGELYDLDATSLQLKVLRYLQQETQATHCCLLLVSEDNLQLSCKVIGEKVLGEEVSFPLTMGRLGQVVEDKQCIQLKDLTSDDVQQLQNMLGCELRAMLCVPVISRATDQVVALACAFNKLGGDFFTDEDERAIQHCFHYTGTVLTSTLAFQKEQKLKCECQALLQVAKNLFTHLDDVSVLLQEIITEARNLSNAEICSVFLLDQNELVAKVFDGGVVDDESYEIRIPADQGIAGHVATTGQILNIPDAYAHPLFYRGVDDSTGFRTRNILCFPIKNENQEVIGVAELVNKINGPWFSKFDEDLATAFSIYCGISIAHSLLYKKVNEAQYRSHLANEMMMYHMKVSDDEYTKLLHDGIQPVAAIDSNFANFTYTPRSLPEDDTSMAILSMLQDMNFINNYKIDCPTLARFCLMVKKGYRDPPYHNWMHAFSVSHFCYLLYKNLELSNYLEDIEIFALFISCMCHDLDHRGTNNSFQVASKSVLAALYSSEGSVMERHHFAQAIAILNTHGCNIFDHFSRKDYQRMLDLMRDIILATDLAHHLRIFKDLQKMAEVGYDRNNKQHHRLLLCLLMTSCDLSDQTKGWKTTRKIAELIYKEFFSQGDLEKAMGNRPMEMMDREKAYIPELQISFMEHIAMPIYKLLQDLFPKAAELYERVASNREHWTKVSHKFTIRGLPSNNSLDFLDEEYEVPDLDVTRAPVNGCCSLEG
Description: as §1, with “The columns were eluted with 2 ml of 30 mM ammonium formate (pH 6.0).” left out, “The proportion of hydrolyzed nucleotide in no case exceeded 20% of the original substrate concentration.” left out
as §2
(§3) In Table 1 below, the inhibitory concentrations determined according to Section A1 [inhibitory concentrations as -log IC50 (mol/l)] for the compounds according to the invention are indicated for various PDE isoenzymes. […]

PDE5 = molecular target: T2, PDE5 (Homo sapiens, UniProt O76074); assay: Inhibition of PDE isoenzymes: PDE5 (cGMP-specific), homogenates of human blood platelets; conditions: read-out: -log IC50, PDE5 (converted)
T2 construct: were investigated in homogenates of human blood platelets; from tissue; host or cells: human blood platelets, homogenate
Description: as §1, with “The columns were eluted with 2 ml of 30 mM ammonium formate (pH 6.0).” left out, “The proportion of hydrolyzed nucleotide in no case exceeded 20% of the original substrate concentration.” left out
as §2, §3

PDE1 = assay: Inhibition of PDE isoenzymes: PDE1 (Ca^2+/calmodulin-dependent) from bovine brain; conditions: Ca^2+ (1 mM), calmodulin (100 nM), cGMP as substrate

PDE3, sequence (Q14432 whole entry): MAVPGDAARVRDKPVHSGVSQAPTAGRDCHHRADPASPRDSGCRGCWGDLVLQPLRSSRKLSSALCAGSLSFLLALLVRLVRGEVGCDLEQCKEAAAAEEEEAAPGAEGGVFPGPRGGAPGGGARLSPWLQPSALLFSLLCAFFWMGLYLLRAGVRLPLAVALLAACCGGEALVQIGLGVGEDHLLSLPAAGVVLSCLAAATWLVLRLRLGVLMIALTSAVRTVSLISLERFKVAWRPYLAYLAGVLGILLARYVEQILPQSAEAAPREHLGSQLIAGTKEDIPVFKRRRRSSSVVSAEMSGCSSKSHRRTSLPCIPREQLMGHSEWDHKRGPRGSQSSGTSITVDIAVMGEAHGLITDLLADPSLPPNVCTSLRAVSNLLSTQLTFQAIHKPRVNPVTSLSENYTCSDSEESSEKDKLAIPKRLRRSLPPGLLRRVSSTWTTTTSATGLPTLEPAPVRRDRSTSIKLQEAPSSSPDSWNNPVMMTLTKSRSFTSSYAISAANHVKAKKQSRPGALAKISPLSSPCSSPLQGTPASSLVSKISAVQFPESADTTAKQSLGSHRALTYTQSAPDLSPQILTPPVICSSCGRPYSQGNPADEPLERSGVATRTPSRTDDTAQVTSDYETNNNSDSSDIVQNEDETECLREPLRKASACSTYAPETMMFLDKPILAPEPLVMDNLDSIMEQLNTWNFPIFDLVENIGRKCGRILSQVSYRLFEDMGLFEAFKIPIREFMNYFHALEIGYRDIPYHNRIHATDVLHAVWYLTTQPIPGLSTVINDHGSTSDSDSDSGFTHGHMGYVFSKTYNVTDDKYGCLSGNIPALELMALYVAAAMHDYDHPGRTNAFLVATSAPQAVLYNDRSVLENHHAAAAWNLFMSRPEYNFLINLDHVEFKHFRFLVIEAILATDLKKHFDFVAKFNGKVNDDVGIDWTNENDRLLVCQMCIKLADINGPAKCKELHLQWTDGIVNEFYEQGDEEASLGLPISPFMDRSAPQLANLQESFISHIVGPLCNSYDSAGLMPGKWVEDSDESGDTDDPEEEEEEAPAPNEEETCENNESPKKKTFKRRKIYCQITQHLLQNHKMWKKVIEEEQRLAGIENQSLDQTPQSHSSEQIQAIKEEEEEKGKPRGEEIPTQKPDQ

| SMILES | IC50 (PDE3) [µM] | -log IC50, PDE4 (PDE4) | IC50 (PDE2) [µM] | IC50 (PDE5) [µM] | -log IC50, PDE1 (PDE1) |
| --- | --- | --- | --- | --- | --- |
| CCOc1cc2c(cc1OCC)[C@@H]1CN(C)CC[C@@H]1N=C2c1ccc(C(=O)OC(C)C)cc1.Cl (single isomer, unassigned) [Compound 5, (-)-cis-8,9-Diethoxy-6-(4-isopropoxycarbonylphenyl)-2-methyl-1,2,3,4,4a,10b-hexahydrobenzo[c][1,6]naphthyridine hydrochloride] | 0.0708 | 7.75 |  |  |  |
| COc1cc2c(cc1OC)[C@H]1CN(C)CC[C@H]1N=C2c1ccc(C(=O)OC(C)C)cc1 (single isomer, unassigned) [Compound 3, (-)-cis-8,9-Dimethoxy-6-(4-isoropoxycarbonylphenyl)-2-methyl-1,2,3,4,4a,10b-hexahydrobenzo[c][1,6]naphthyridine hydrochloride] | 0.0724 | 6.45 |  |  |  |
| CCCCN(CCCC)C(=O)c1ccc(C2=N[C@H]3CCN(C)C[C@H]3c3cc(OCC)c(OCC)cc32)cc1.Cl (single isomer, unassigned) [Compound 17, (+)-cis-8,9-Diethoxy-6-(4-dibutylaminocarbonylphenyl)-2-methyl-1,2,3,4,4a,10b-hexahydrobenzo[c][1,6]naphthyridine hydrochloride] | 0.417 | 7.94 |  |  |  |
| CCOc1cc2c(cc1OCC)[C@H]1CN(C)CC[C@H]1N=C2c1ccc(C(=O)N(C(C)C)C(C)C)cc1 (single isomer, unassigned) [Compound 11, (-)-cis-8,9-Diethoxy-6-(4-diisopropylaminocarbonylphenyl-2-methyl-1,2,3,4,4a,10b-hexahydrobenzo[c][1,6]naphthyridine hydrochloride] | 0.0589 | 7.85 |  |  |  |
| CCCCN(CCCC)C(=O)c1ccc(C2=N[C@H]3CCN(C)C[C@H]3c3cc(OCC)c(OC)cc32)cc1.Cl (single isomer, unassigned) [Compound 23, (-)-cis-9-Ethoxy-8-methoxy-6-(4-dibutylaminocarbonylphenyl)-2-methyl-1,2,3,4,4a,10b-hexahydrobenzo[c][1,6]naphthyridine hydrochloride] | 0.229 | 8.56 |  |  |  |

The next lines start with the values.

| IC50 (PDE3) [µM] | -log IC50, PDE4 (PDE4) | IC50 (PDE2) [µM] | IC50 (PDE5) [µM] | -log IC50, PDE1 (PDE1) | SMILES |
| --- | --- | --- | --- | --- | --- |
| 0.0229 | 8.51 |  |  |  | CCOc1cc2c(cc1OC)C(c1ccc(C(=O)N3CCCCCC3)cc1)=N[C@H]1CCN(C)C[C@@H]21 (single isomer, unassigned) [Compound 24, (-)-cis-9-Ethoxy-8-methoxy-6-[4-(hexahydroazepin-1-yl-carbonyl)phenyl]-2-methyl-1,2,3,4,4a,10b-hexahydrobenzo[c][1,6]naphthyridine] |
| 0.457 | 7.67 |  |  |  | CCOc1cc2c(cc1OC)C(c1ccc(C(=O)OC)cc1)=N[C@H]1CCN(C)C[C@@H]21.Cl (single isomer, unassigned) [Compound 21, (-)-cis-9-Ethoxy-8-methoxy-6-(4-methoxycarbonylphenyl)-2-methyl-1,2,3,4,4a,10b-hexahydrobenzo[c][1,6]naphthyridine hydrochloride] |
| 0.0275 | 8.18 |  |  |  | CCOc1cc2c(cc1OC)C(c1ccc(C(=O)N(C(C)C)C(C)C)cc1)=N[C@H]1CCN(C)C[C@@H]21.Cl (single isomer, unassigned) [Compound 19, (-)-cis-9-Ethoxy-8-methoxy-6-(4-diisopropylaminocarbonylphenyl)-2-methyl-1,2,3,4,4a,10b-hexahydrobenzo[c][1,6]naphthyridine hydrochloride] |
| 0.186 | 7.96 |  |  |  | CCOc1cc2c(cc1OCC)[C@H]1CN(C)CC[C@H]1N=C2c1ccc(C(=O)N(C(C)C)C2CCCCC2)cc1 (single isomer, unassigned) [Compound 16, (+)-cis-8,9-Diethoxy-6-(4-N-cyclohexyl-N-isopropylaminocarbonylphenyl)-2-methyl-1,2,3,4,4a,10b-hexahydrobenzo[c][1,6]naphthyridine hydrochloride] |
| 0.182 | 7.87 |  |  |  | CCOc1cc2c(cc1OCC)[C@@H]1CN(C)CC[C@@H]1N=C2c1ccc(C(=O)N2CCCCCC2)cc1.Cl (single isomer, unassigned) [Compound 18, (-)-cis-8,9-Diethoxy-6-[4-(hexahydroazepin-1-yl-carbonyl)phenyl]-2-methyl-1,2,3,4,4a,10b-hexahydrobenzo[c][1,6]naphthyridine hydrochloride] |
| 0.214 | 7.54 | 15.8 | 3.55 | < 4 -log(mol/l) | CCOc1cc2c(cc1OCC)[C@@H]1CN(C)CC[C@@H]1N=C2c1ccc(C(=O)OC)cc1.Cl (single isomer, unassigned) [Compound 4, (-)-cis-8,9-Diethoxy-6-(4-methoxycarbonylphenyl)-2-methyl-1,2,3,4,4a,10b-hexahydrobenzo[c][1,6]naphthyridine hydrochloride] |

Source: patent US6008215A, “Benzonaphthyridines as bronchial therapeutics” (Byk Gulden Lomberg Chemische Fabrik GmbH, priority 1996, dated 1999)
